# Test results: patent EP2102204B1, “NEW AMINOPYRROLO[1,2- A]INDOLE ET AMINOPYRIDAZINO[1,6-A]INDOLE DERIVATIVES, METHOD FOR PREPARING THE SAME AND PHARMACEUTICAL COMPOSITIONS CONTAINING THE SAME” (Les Laboratoires Servier, priority 2007, dated 2008)
# Like-named read-outs stand apart in the source and are kept apart here.
# Key:
# D1 = D1 (Homo sapiens, UniProt P21728); assay: Receptor affinity, displacement of labelled specific ligand; type: binding; details: concentration 10^-5 M
# From the text: (§1) L'affinité pour les récepteurs est déterminée selon les méthodes habituelles de relation entre le ligand spécifique et le récepteur, qui peut être d'origine animale ou un recombinant humain. Elle a été déterminée par la méthode du déplacement du ligand spécifique marqué par le composé étudié, et exprimée par la constante de dissociation Ki. L'affinité réceptorielle pour 28 récepteurs classiques a ainsi été étudiée. L'étude montre que l'induction de TH observée ne passe pas par une affinité vis-à-vis des récepteurs habituellement touchés par les produits psychotropes, comme les récepteurs adrénergiques alpha (de type α2), 5HT (de type 5HT2A), dopaminergiques (de type D1 et D2). Quelques dérivés montrent une affinité non négligeable pour les récepteurs sigma (σ) (ligand halopéridol) ou muscarinique (M). TABLEAU II
# 5HT2A = 5HT2A (Homo sapiens, UniProt P28223); assay: as above; type: binding
# From the text: as §1
# [1] = test system: protéine tyrosine hydroxylase (TH); assay: Induction of tyrosine hydroxylase in the locus coeruleus of mice (immunodetection and image analysis of brain sections); type: in vivo, souris Balb/C; details: i.p. 20 mg/kg, single injection, 3 days after, % par rapport à la valeur moyenne du groupe témoin; for quantité de TH au niveau du LC, coupe 1: coupe 1 du LC (sens antérieur vers postérieur); for quantité de TH au niveau du LC, coupe 2: coupe 2 du LC (sens antérieur vers postérieur); for quantité de TH au niveau du LC, coupe 3: coupe 3 du LC (sens antérieur vers postérieur); for quantité de TH au niveau du LC, coupe 4: coupe 4 du LC (sens antérieur vers postérieur); for quantité de TH au niveau du LC, coupe 5: coupe 5 du LC (sens antérieur vers postérieur); for quantité de TH au niveau du LC, coupe 6: coupe 6 du LC (sens antérieur vers postérieur); for quantité de TH au niveau du LC, coupe 7: coupe 7 du LC (sens antérieur vers postérieur); for quantité de TH au niveau du LC, coupe 8: coupe 8 du LC (sens antérieur vers postérieur)
# From the text: Il est recherché, parmi les dérivés, ceux qui sont capables d'induire une augmentation de la protéine tyrosine hydroxylase (TH) dans le cerveau de la souris Balb/C, au niveau du locus coeruleus (LC).
# Les animaux utilisés sont des souris mâles de la lignée pure Balb/C (Charles River Laboratories), âgées de 7 à 8 semaines au moment du traitement.
# Les souris reçoivent une injection unique par voie intrapéritonéale du composé à tester, dissous dans une solution d'HCl 0,04 M (contrôle correspondant : HCl […]) si le composé est suffisamment soluble, ou dans l'huile d'olive 90 % / DMSO 10 % (contrôle correspondant : huile d'olive 90 % / DMSO 10 %) pour les composés insolubles en milieu aqueux.
# Trois jours après l'injection de chaque molécule, tous les animaux sont sacrifiés par décapitation. Les cerveaux extraits sont ensuite congelés dans de l'azote liquide et conservés à -80° C.
# Des coupes coronales de 8 microns d'épaisseur sont pratiquées le long de l'axe postéro-antérieur du LC et fixées. Les coupes sont transférées sur membranes Immobilon-P. La TH est mesurée par immunodétection et analyse d'image.
# [2] = Prediction of metabolic stability on liver microsomes; type: in vitro ADME; details: 10^-7 M, 0,33 mg prot/ml, NADPH, 0-60 minutes
# Description: La prédiction de stabilité métabolique est testée par incubation des dérivés à la concentration de 10^-7 M en présence de microsomes hépatiques de souris, rat ou d'homme (0,33 mg prot/ml). Après addition de NADPH (nicotinamide adénine dinucléotide phosphate, forme réduite), des prélèvements sont réalisés à 0, 5, 15, 30 et 60 minutes. La réaction enzymatique est arrêtée avec le méthanol (VN). La protéine est précipitée par centrifugation et le surnageant analysé par LC-MS-MS. La bonne stabilité métabolique de ces dérivés permet d'envisager un traitement per os. TABLEAU III
# [3] = test system: récepteurs adrénergiques alpha (de type α2); assay: Receptor affinity, displacement of labelled specific ligand; type: binding; details: concentration 10^-5 M
# From the text: as §1
# récepteurs sigma (σ) = assay: Receptor affinity, displacement of labelled specific ligand (haloperidol); type: binding
# From the text: as §1
# [4] = read-out: % d'inhibition 5HT2A, concentration 10^-5 M
# Chain of 5HT2A (P28223 whole entry, species assumed): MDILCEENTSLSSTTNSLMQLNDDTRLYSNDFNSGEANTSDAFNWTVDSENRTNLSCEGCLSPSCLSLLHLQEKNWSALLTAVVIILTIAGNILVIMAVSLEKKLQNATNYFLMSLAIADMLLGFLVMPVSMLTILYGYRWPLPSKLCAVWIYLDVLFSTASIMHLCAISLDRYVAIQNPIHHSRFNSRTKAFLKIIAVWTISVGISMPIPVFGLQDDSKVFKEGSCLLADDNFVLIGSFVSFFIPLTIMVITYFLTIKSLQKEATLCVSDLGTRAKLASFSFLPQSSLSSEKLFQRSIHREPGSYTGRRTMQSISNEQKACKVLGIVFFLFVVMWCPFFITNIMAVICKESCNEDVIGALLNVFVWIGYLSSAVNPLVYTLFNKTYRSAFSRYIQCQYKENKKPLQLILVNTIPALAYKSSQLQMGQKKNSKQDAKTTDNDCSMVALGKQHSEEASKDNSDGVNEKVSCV
# Chain of D1 (P21728 whole entry): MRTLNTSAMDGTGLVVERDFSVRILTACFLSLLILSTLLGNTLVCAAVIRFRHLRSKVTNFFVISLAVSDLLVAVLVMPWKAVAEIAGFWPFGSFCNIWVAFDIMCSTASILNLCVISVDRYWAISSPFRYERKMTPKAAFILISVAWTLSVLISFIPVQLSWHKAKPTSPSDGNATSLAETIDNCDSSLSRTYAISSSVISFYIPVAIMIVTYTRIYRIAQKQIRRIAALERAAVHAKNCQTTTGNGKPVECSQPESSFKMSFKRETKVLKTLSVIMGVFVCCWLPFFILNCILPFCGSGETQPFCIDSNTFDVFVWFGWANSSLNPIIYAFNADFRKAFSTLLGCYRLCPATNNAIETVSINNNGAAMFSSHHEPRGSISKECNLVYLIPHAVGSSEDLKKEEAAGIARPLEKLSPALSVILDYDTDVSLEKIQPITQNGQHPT
Structure (SMILES),inhibition at 10 µM (D1; read-out: % d'inhibition D1) [%],"inhibition at 10 µM (5HT2A; concentration 10^-5 M, read-out: % d'inhibition 5HT2A) [%]","quantité de TH au niveau du LC, coupe 1 [1] [%]","quantité de TH au niveau du LC, coupe 2 [1] [%]","quantité de TH au niveau du LC, coupe 3 [1] [%]","quantité de TH au niveau du LC, coupe 4 [1] [%]","quantité de TH au niveau du LC, coupe 5 [1] [%]","quantité de TH au niveau du LC, coupe 6 [1] [%]","quantité de TH au niveau du LC, coupe 7 [1] [%]","quantité de TH au niveau du LC, coupe 8 [1] [%]",% de prédiction de stabilité métabolique sur microsomes hépatiques ([2]; Homme) [%],% de prédiction de stabilité métabolique sur microsomes hépatiques ([2]; Rat) [%],% de prédiction de stabilité métabolique sur microsomes hépatiques ([2]; Souris) [%],% d'inhibition α2 [3] [%],% d'inhibition D1 (D1) [%],inhibition at 10 µM (5HT2A; [4]) [%],"inhibition at 0.1 µM (5HT2A; read-out: % d'inhibition 5HT2A, concentration 10^-7 M) [%]",% d'inhibition σ (récepteurs sigma (σ); concentration 10^-5 M) [%],% d'inhibition σ (récepteurs sigma (σ); concentration 10^-7 M) [%]
"CN1CCC[C@@H]2C(=O)N3c4ccccc4C[C@H]3[C@@H]21 [Exemple 3, (4aSR, 11aSR, 11bRS)-1-Méthyl 1,2,3,4,4a,11,11a,11b-octahydropyrido[2'3':3,4]pyrrolo[1,2-a]indol-5-one]",39,84,104,97,69,58,49,31,10,8,59,31,61,–,–,–,–,–,–
"O=C1NN2c3ccccc3C[C@H]2[C@@H]2NCCC[C@H]12 (racemic) [Exemple 8, (4aSR,11aSR, 11bRS)-1,2,3,4,4a,11,11a,11b-Octahydro-1,6,6a-triazabenzo[a]fluorén-5-one]",–,–,59,61,59,50,33,17,9,5,80,52,86,–,–,–,–,–,–
"CN1CCC[C@@H]2C(=O)N3c4ccccc4C[C@H]3[C@@H]21 [Exemple 45, (4aS,11aS,11bR)-1-Méthyl-1,2,3,4,4a,11,11a,11b-octahydropyrido[2',3':3,4]pyrrolo[1,2-a]indol-5-one]",–,–,–,–,–,–,–,–,–,–,–,–,–,23,49,92,13,–,–
"CN1CCC[C@@H]2C(=O)N3c4ccc(Cl)cc4C[C@H]3[C@@H]21 (racemic) [Exemple 27, (4aSR,11aSR,11bRS)-9-Chloro-1-méthyl-1,2,3,4,4a,11,11a,11b-octahydropyrido[2',3':3,4]pyrrolo[1,2-a]indol-5-one]",–,–,55,67,54,46,26,29,3,5,–,–,–,10,–,84,–,10,–
"C=CCN1CCC[C@@H]2C(=O)N3c4ccc(OC)cc4C[C@@H]3[C@H]21 (racemic) [Exemple 19, (4aSR,11aRS,11bSR)-1-Allyl-9-méthoxy-1,2,3,4,4a,11,11a,11b-octahydro-pyrido[2',3':3,4]pyrrolo[1,2-a]indol-5-one]",–,–,49,48,55,50,21,15,6,9,–,–,–,–,–,–,–,36,10
"Cc1ccc2c(c1)CC1C3=C(CCCN3C)C(=O)N21 (racemic) [Exemple 40, (11aRS)-1,9-Diméthyl-1,2,3,4,11,11a-hexahydropyrido [2',3':3,4] pyrrolo[1,2-a]indol-5-one]",–,–,72,96,66,66,58,34,39,4,–,–,–,–,–,–,–,–,–
"C=CCN1CCC[C@H]2C(=O)N3c4ccccc4C[C@H]3[C@@H]21 [Exemple 44, (4aR,11aS,11bR)-1-allyl-1,2,3,4a,11,11a,11b-octahydropyrido[2':3':3.4]pyrrolo[1,2-a]indol-5-one]",–,–,83,99,78,58,38,29,18,3,–,–,–,–,–,–,–,–,–
"O=C1[C@H]2CCCN[C@@H]2[C@H]2Cc3ccccc3N12 (racemic) [Exemple 47, (4aSR,11aRS,11bSR)-1,2,3,4,4a,11,11a,11b-Octahydropyrido [2',3':3,4]pyrrolo[1,2-a]indol-5-one]",–,–,–,–,–,–,–,–,–,–,86,85,99,–,–,–,–,–,–
"N#CCN1CCC[C@@H]2C(=O)N3c4ccccc4C[C@H]3[C@@H]21 (racemic) [Exemple 10, [(4aSR,11aSR,11bRS)-5-Oxo-3,4,4a,11,11a,11b-hexahydro-2H,5H-pyrido[2',3':3,4]pyrrolo[1,2-a]indol-1-yl]acétonitrile]",–,–,58,50,49,47,34,26,18,1,–,–,–,–,–,–,–,–,–
